This note sets out measurements from PMC11851464, “Development of a Spectrophotometric Assay for the Cysteine Desulfurase from Staphylococcus aureus” (Antibiotics, 2025).

In assay [1] the target is T1, cysteine desulfurase SufS (SaSufS) (Staphylococcus aureus, UniProt A0A0H2XHJ5). Put plainly: spectrophotometric […] nm assay after […] h incubation; UV-Vis of PLP adduct. It counts as biochemical.
The target in assay [2] is T1, cysteine desulfurase SufS (SaSufS). The assay can be described thus: spectrophotometric […] nm assay after […] h incubation; Ala-NDA assay (IC50 […]); UV-Vis of PLP adduct. It counts as biochemical.

T1 sequence (A0A0H2XHJ5 1-413): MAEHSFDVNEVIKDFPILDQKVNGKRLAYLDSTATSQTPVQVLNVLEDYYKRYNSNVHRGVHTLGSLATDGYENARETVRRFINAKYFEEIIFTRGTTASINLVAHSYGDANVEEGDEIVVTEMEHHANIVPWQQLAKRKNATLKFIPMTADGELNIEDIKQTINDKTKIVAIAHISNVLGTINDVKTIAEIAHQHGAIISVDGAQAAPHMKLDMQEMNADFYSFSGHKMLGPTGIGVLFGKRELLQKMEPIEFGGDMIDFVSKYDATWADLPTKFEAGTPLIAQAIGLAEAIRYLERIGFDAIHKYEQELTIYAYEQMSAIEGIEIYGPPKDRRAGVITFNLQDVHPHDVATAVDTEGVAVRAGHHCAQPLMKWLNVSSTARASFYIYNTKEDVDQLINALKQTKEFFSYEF

Broadly, the IC50 is the concentration that inhibits the measured activity by half. A high value points to a need for much substance. On to `N[C@@H]1CON=C1O` [DCS, D-cycloserine], for which the IC50 in assay [1] amounted to 2170 ± 920 µM.
Compound `N[C@H]1CONC1=O` [LCS, L-cycloserine] returned a 50% inhibitory concentration (IC50) in assay [2] of 62 ± 23 µM.
